How the values were obtained:
Bacillus badius = assay: MIC of glyphosate and neutralisation by CLK-GA, micro dilution method in RCM Bouillon; assay type: cell-based
Excerpt: (§1) The pathogen Enterococcus faecalis was isolated from the microalgae Chlorella vulgaris to citrate-acid-tween-carbonate (CATC) agar. Suspicious colonies (gram positive, catalase negative cocci) were inoculated to blood agar plates (oxoid) and differentiated by using biochemical tests. The species differentiation was confirmed by means of MALDI-TOF-MS. The isolation of the pathogen Bacillus badius was done from Chlorella vulgaris to blood agar (oxoid). The species differentiation was done based on biochemical parameters. The confirmation was done by means of MALDI-TOF-MS.
(§2) Commercially available glyphosate preparation Roundup UltraMax® (450 g/l glyphosate as isopropylamine salt on SL formulation) was used for the test.
(§3) The value for the minimal inhibitory concentration of glyphosate for the indicator germs (MIC) was determined by using micro dilution method (MID) in accordance with the current specifications of the National Committee for Clinical Laboratory Standards (NCCLS). It was carried out for E. faecalis and B. Badius in RCM Bouillon (SIFIN).
(§4) The determination of the neutralising effect of humic acid product CLK-GA for glyphosate was done through glyphosate MIC. The MIC determinations for glyphosate and glyphosate-CLK-GA mixture was carried out in RCM Bouillon as described above. CLK-GA was used in the concentrations of 1.0, 0.5 and 0.25 mg/ml. The neutralisation of glyphosate was carried out in RCM Bouillon in the concentrations of 300 μg/ml, 600 μg/ml, 1200 μg/ml and 2400 μg/ml mixed with 1 mg/ml, 0.5 mg/ml and 0.25 mg/ml CLK-GA and kept overnight at 37° C. After centrifugation (3000 U/min) and filtration of the individual formulations through a centrifugal filter (3Kda, VWR, Mexico)m […] KbE E. faecalis and B. Badius was given to these. After growing it overnight at 37° C., the contents of each tube was spread on CATC agar or blood agar and was evaluated after 48 h.

Enterococcus faecalis = assay: as above; assay type: cell-based
Excerpt: as §1, §2, §3, §4

[1] = 10^4 KbE/ml suspension, end concentration 300 μg/ml glyphosate and/or 1 mg/ml CLK-GA

O=C(O)CNCP(=O)(O)O [Glyphosate, glyphosate]
growth / elimination of germs in suspension (Bacillus badius; [1]): growth was absent | MIC (Bacillus badius; Pseudobacillus badius, read-out: MIC values Glyphosate): 150 µg/mL | growth / elimination of germs in suspension (Enterococcus faecalis; [1]): growth was absent | MIC (Enterococcus faecalis; Enterococcus faecalis, read-out: MIC values Glyphosate): 200 µg/mL
